# Results as given in paper PMC4958244 (mBio, 2016).
# B1: N-terminal part of Als3p from Candida albicans (N-Als3p) (domain or fragment)
# chain: KTITGVFNSFNSLTWSNAATYNYKGPGTPTWNAVLGWSLDGTSASPGDTFTLNMPCVFKFTTSQTSVDLTAHGVKYATCQFQAGEEFMTFSTLTCTVSNTLTPSIKALGTVTLPLAFNVGGTGSSVDLEDSKCFTAGTNTVTFNDGGKKISINVDFERSNVDPKGYLTDSRVIPSLNKVSTLFVAPQCANGYTSGTMGFANTYGDVQIDCSNIHVGITKGLNDWNYPVSSESFSYTKTCSSNGIFITYKNVPAGYRPFVDAYISATDVNSYTLSYANEYTCAGGYWQRAPFTLRWTGYRNSDAGSNGIVIVATTRTVTDSTTAVTTLPFDPNRDKTKTIEILKPIPTTTITTSYVGVTTSYSTKTAPIGETATVIVDIPYHTTTTVTSKWTGTITSTTTHTNPTDSIDTVIVQVP
# modifications: Secreted from S. cerevisiae, C-terminal His tag omitted. The strain of the allele is not given; the SC5314 reference entry is used. Limits 18-432 are printed in Text S1.
# Columns and labels:
# [1] = target: T1, N-Als3p (Candida albicans, UniProt Q59L12); assay: CFG glycan array v5.[…]; assay type: binding; settings: glycan printed on glass slide, N-Als3p NT-647 labelled
# T1 construct: gene ALS3; N-terminal part (Ig-like adhesin domain); recombinant, purified from S. cerevisiae or E. coli as previously described
# [2] = target: T1, N-Als3p; assay: SPR, immobilised BSA-GlcNAc; assay type: binding; settings: GlcNAc shown as BSA glycoconjugate on CM5 chip, 25°C
# [3] = target: T2, N-Epa1p (Nakaseomyces glabratus, UniProt Q6VBJ0); assay: SPR inhibition of binding to immobilised mucin; settings: competition with porcine stomach mucin, lactose 6 µM to 1.5 mM, 25°C
# T2 construct: gene EPA1; N-terminal PA14-like lectin domain; recombinant, purified from S. cerevisiae or E. coli as previously described
# [4] = target: Mucin, partially purified from porcine stomach (porcine); assay: SPR; Biacore 3000, 25°C; FN, mucin or laminin covalently immobilised on a CM5 chip by amine coupling, adhesin domain flowed over; dissociation constants in the equilibrium state
# [5] = target: Laminin, from human placenta (human); assay: as above
# [6] = target: Fibronectin (FN) (UniProt P02751 32-2477); assay: as above; settings: both partners purified
# Fibronectin (FN), sequence (P02751 32-2477): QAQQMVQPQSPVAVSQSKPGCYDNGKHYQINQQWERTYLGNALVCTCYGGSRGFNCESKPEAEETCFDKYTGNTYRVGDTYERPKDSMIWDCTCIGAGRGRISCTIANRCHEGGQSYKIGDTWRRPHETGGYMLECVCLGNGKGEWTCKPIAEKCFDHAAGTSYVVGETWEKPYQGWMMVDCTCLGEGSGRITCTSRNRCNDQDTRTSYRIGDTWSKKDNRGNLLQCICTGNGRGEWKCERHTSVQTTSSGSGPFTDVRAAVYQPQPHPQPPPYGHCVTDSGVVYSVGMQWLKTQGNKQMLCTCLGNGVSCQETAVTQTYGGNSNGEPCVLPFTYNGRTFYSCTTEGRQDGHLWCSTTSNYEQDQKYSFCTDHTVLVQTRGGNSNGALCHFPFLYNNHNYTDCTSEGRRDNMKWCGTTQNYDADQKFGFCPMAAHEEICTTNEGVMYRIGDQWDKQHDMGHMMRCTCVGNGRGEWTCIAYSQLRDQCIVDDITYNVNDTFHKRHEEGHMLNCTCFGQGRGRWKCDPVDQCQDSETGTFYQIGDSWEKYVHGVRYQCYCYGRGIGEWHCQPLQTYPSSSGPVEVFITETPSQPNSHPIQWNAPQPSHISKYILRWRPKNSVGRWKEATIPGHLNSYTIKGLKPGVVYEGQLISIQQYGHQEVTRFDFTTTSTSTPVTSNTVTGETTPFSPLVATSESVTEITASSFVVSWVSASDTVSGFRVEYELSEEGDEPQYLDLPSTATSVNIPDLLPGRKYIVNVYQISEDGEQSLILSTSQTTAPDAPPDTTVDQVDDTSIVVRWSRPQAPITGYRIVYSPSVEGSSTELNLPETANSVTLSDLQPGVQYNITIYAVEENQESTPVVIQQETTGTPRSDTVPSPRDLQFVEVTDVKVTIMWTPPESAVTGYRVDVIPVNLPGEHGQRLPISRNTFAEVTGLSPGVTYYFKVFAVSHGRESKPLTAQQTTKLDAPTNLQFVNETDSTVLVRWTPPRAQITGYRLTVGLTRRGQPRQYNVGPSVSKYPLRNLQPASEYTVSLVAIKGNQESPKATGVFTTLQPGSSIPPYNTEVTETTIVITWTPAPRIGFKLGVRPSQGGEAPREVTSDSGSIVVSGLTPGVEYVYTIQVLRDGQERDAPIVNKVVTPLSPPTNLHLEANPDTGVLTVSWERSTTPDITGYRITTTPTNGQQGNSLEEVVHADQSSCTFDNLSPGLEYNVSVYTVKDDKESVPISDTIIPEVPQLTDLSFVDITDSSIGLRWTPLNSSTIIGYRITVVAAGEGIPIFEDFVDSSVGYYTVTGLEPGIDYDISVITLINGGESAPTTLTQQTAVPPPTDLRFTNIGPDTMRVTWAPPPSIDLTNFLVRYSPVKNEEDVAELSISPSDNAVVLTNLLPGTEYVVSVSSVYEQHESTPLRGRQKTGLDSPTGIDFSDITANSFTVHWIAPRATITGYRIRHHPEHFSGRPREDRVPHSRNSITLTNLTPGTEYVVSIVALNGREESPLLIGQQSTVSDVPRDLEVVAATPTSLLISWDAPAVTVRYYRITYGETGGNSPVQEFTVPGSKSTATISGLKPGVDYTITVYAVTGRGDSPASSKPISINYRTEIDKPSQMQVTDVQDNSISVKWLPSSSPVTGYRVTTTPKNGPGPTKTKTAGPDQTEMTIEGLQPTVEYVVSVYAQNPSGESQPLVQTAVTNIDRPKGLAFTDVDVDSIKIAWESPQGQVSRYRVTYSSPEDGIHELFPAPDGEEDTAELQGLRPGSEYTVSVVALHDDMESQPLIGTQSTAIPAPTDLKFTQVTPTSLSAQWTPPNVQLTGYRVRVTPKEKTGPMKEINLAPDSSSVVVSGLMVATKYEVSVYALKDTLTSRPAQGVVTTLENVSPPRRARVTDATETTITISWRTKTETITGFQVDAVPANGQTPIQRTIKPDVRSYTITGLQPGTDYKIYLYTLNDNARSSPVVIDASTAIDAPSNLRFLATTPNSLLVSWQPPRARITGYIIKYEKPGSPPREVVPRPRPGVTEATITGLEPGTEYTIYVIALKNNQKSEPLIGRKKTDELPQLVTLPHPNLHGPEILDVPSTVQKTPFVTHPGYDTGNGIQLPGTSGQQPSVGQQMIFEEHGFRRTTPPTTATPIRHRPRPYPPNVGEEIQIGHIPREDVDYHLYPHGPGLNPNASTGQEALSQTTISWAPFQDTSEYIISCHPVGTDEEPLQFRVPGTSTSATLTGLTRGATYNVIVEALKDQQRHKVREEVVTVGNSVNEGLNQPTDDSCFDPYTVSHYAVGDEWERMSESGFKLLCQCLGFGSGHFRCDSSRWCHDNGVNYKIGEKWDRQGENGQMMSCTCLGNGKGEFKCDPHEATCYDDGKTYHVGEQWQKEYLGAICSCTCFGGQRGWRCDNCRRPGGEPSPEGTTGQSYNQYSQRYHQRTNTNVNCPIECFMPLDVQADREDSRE
# T2 sequence (Q6VBJ0 entry or part of it): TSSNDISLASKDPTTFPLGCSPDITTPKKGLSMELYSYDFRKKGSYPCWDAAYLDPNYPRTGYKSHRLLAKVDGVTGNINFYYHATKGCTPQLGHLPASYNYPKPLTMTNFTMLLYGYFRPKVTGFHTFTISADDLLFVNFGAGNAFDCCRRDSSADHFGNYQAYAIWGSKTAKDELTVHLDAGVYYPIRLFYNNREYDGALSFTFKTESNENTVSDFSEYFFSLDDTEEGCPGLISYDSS
molecule,measurement,setting,value
"CC(=O)N[C@H]1[C@H](O[C@H]2[C@@H](O)[C@@H](CO)OC(O)[C@@H]2O)O[C@H](CO)[C@H](O)[C@@H]1O[C@@H]1O[C@H](CO)[C@H](O)[C@H](O)[C@H]1O[C@@H]1O[C@@H](C)[C@@H](O)[C@@H](O)[C@@H]1O (some centres unmarked) [Fucα-1,2-Galβ-1,3-GalNAcβ-1,3-Gal]",CFG glycan array v5.0,[1]; 200 µg/ml,"GlcNAcβ-1,3GalNAc and Fucα-1,2-Galβ-1,3-GalNAcβ-1,3-Gal were also recognized"
CC(=O)N[C@H]1C(O)O[C@H](CO)[C@@H](O)[C@@H]1O (some centres unmarked) [GlcNAc],"SPR, immobilised BSA-GlcNAc",[2],SPR experiments confirmed the binding of N-Als3p to GlcNAc
"CC(=O)N[C@H]1[C@H](O[C@H]2[C@@H](O)[C@@H](CO)OC(O)[C@@H]2NC(C)=O)O[C@H](CO)[C@@H](O)[C@@H]1O (some centres unmarked) [GlcNAcβ-1,3GalNAc]",CFG glycan array v5.0,[1]; 200 µg/ml,"GlcNAcβ-1,3GalNAc and Fucα-1,2-Galβ-1,3-GalNAcβ-1,3-Gal were also recognized"
CC(=O)N[C@H]1C(O)O[C@H](CO)[C@H](O)[C@@H]1O[C@@H]1O[C@H](CO)[C@H](O)[C@H](O)[C@H]1O (some centres unmarked) [T antigen],CFG glycan array v5.0,[1]; 200 and 20 µg/ml,N-Als3p bound also to the T antigen
OC[C@H]1O[C@@H](O[C@H]2[C@H](O)[C@@H](O)C(O)O[C@@H]2CO)[C@H](O)[C@@H](O)[C@H]1O (some centres unmarked) [lactose],SPR inhibition of binding to immobilised mucin,[3],binding of N-Epa1p to mucin could be blocked by lactose in a concentration-dependent manner
N-terminal domain of Epa1p from Candida glabrata (N-Epa1p) (domain or fragment),Kd,[4],4.67 µM
N-terminal part of Als3p from Candida albicans (N-Als3p) (domain or fragment),Kd,[5],410 µM
B1,Kd,[6],10 ± 1 µM
